Reference: patent US20120083464A1, “NEUROPROTECTIVE PROPERTIES OF 5'-METHYLTHIOADENOSINE” (priority 2009, published 2012)
“Also recorded” adds a separate entry of the source.

What was measured:
[1] = tested on: hippocampal neurons after pilocarpine-induced status epilepticus; experiment: Pilocarpine model of temporal lobe epilepsy (status epilepticus), hippocampal histology; format: in vivo, Sprague-Dawley rats; details: for quantification of cells in area CA1 at 30 days after SE: preliminary
Source text: We compared two MTA treatment regimens to examine its neuroprotective effect on pilocarpine-induced SE in adult rats. One regimen involved 5 days of MTA treatment beginning beginning 2 days before SE (pre-SE MTA). The other regimen, a more clinically relevant protocol, consisted of MTA treatment for 3 days beginning at the termination of SE (post-SE MTA).
Young adult (175-200 g), male Sprage-Dawley rats were divided into four MTA treatment groups, 9-11 rats per group. In group A, rats were subjected to pilocarpine-induced status epilepticus (SE). Following 90 minutes of continuous seizure activity, SE was stopped by a single administration of diazepam (10 mg/kg). The rats were injected either with vehicle or MTA once daily for 3 days. Rats were sacrificed at day 4 after SE, and their brains perfusion fixed, frozen and sectioned for histology. In group B, treatment of rats was the same as Group A except that the rats were sacrificed at day 30 after SE. In group C, rats were treated with MTA once daily for two days. On the third day, rats underwent pilocarpine-induced SE. The rats were continuously treated with MTA once daily for 3 more days; controls received placebo The rats were then anesthetized and sacrificed day 4 after SE. In group D, rats were treated the same way as Group C except that the rats were sacrificed on 30 days after SE.
The sections were subjected to cresyl violet (Nissl) staining and NeuN immunostaining to examine cell loss. Timm staining to identify mossy fiber sprouting was performed on the 30-day survival group.

[2] = tested on: pure rat cortical neuronal culture; experiment: NMDA-mediated toxicity (LDH release) in pure neuronal culture; format: cell-based, Sprague-Dawley rat; details: NMDA 300 μM, MTA 100 to 500 μM
Description: Primary cultures of brain cortical neurons were essentially prepared as described previously (Bruno et al., 2001, Eur. J. Neurosci., 13:1469-1478). The fronto-lateral cortical lobes were dissected out of Sprague-Dawley embryonic day 17 foetuses and were mechanically dissociated in Hanks' balanced solution. The cortical lobes were triturated by aspirating 7-10 times using a Pasteur pipette with a flame-narrowed tip. After centrifugation at 800 g for 5 min, cells were resuspended in serum-free Neurobasal medium (GIBCO) supplemented with B27 (GIBCO) containing 2 mM L-glutamine, penicillin (20 units/ml) and streptomycin (5 μg/ml) and plated on poly-L-lysine-coated 24-well culture plates or on poly-L-lysine-coated 6-well culture plates. […]
For viability experiments, cortical neurons or mixed cortical neurons and glia, seeded onto 24-well plates at 15×10^4 cells/well and cultured for 7 DIV, were treated with vehicle (DMSO 1‰), NMDA (300 μM), NMDA (300 μM)+MTA (at different concentrations) or NMDA (300 μM)+MK-801 (10 μM) for 6 h and 24 h. […] Lactate dehydrogenase (LDH) activity was measured as an index of cellular death and mortality was expressed as percentage of LDH released to culture media. LDH was measured spectrophotometrically at 490 nm on a 96-well plate reader by using the Cytotox 96 Kit according to the manufacturer instructions (Promega). […]

[3] = tested on: rats after focal ischemia (MCAO); format: in vivo
[4] = tested on: oligodendrocytes derived from the optic nerve; experiment: MTA toxicity profile in cultured oligodendrocytes (calcein-AM); format: cell-based; details: MTA 1 μM-3 mM for 24 hours
Description: (§1) Primary cultures of oligodendrocytes derived from optic nerves of 12-d-old Sprague Dawley rats were obtained as described previously (Barres et al., 1992). Cells were seeded into 24-well plates bearing 12-mm-diameter coverslips coated with poly-D-lysine (10 μg/ml) at a density of 5×10^3 cells per well. Cells were maintained at 37° C. and 5% CO2 in a chemically defined medium (Barres et al., 1992, Cell 70:31-46). After 2-4 d in vitro, cultures were composed of at least 98% O4/galactocerebroside-positive (O4/Ga1C_) cells; the majority of the remaining cells were stained with antibodies to glial fibrillary acidic protein (GFAP). No A2B5+ or microglial cells were detected in these cultures (Alberdi et al., 2002, Neurobiol Dis 9:234-243).
(§2) Cell toxicity and viability assays were performed as described previously (Sánchez-Gómez and Matute, 1999, Neurobiol Dis 6:475-485). For evaluating the MTA toxicity, cells at 2-4 d in culture were exposed for 24 hours to that drug and cell viability assessed using calcein-AM (Invitrogen). […] Twenty-four hours after drug application, cell viability was assessed using calcein-AM (Invitrogen). The total number of surviving cells on each coverslip emitting calcein fluorescence was counted, and results were expressed as percentage of cell death versus control. Results were expressed as the mean±SEM of at least three independent experiments performed in duplicate. […]

[5] = tested on: oligodendrocytes derived from the optic nerve; experiment: Oligodendrocyte excitotoxicity with AMPA; format: cell-based, Sprague Dawley rats; details: MTA 100-300 μM
Description: as §1, §2

RN22 cells = experiment: Copper sulphate stress in RN22 cells, MTT cell viability; format: cell-based, rat
Description: RN22 cells were maintained at 37° C. in DMEM medium supplemented with 10% of fetal bovine serum and penicillin/streptomycine. The assays against stress with copper sulphate were conducted using 24-well plates in DMEM medium without serum. After allowing cell adherence for three days, NGF (100 ng/ml) or MTA was added to different concentrations half an hour before the copper sulphate (150 μM). After twenty-four hours, cell viability was quantified by MTT assay and ROS production was quantified by fluorescence. Assays against stress with hydrogen peroxide were conducted in the same way as the foregoing, using 100 μM hydrogen peroxide as a stress-producing agent.
We determined the quantity of MTT (Sigma) that is reduced to insoluble formazan. After separating the medium, the water-insoluble formazan is solubilised in DMSO and the dissolved material is measured in a spectrophotometer at 570 nm.

CSC[C@H]1O[C@@H](n2cnc3c(N)ncnc32)[C@H](O)[C@@H]1O [MTA, 5′-methylthioadenosine]
hippocampal neuronal loss, qualitative (Nissl stain, NeuN immunohistochemistry) ([1]; MTA started before or after SE, early and late timepoints, dentate hilus, CA1, CA3): qualitatively reduced neuronal loss; also recorded: qualitatively more Nissl-stained cells
mossy fiber sprouting (Timm stain) ([1]; late timepoint, either MTA group): No qualitative difference
quantification of cells in area CA1 at 30 days after SE ([1]; post-SE MTA group, p=0.057): trend toward neuroprotection; also recorded: non-significant trend toward increased cell numbers
hippocampal NeuN immunoreactivity at 30 days after SE (representative example) ([1]; post-SE MTA, dentate gyrus): only mild cell loss
quantification of cells in area CA1 at 30 days after SE ([1]; pre-SE MTA group, p=0.02): significant neuroprotective effects
hippocampal NeuN immunoreactivity at 30 days after SE (representative example) ([1]; pre-SE MTA, dentate gyrus and pyramidal cell layer): good preservation of neurons
effect on NMDA-mediated toxicity (LDH release) [2]: no neuroprotective effect; also recorded: Lack of effect
damaged area (TTC staining) versus vehicle ([3]; MTA 30 mg/kg i.p. twice daily from 30 min after onset of ischemia, 3 days of reperfusion): did not show a reduction; also recorded: does not protect
toxicity to rats after ischemia ([3]; MTA 100 mg/kg i.p. twice daily): toxic
MTA concentrations at which significant toxicity was observed (calcein-AM) [4]: above 300 μM
protection of oligodendrocytes from excitotoxic insult ([5]; AMPA 10 μM): robust protective activity; also recorded: protects
protection of oligodendrocytes from excitotoxic insult ([5]; AMPA 100 μM (necrotic death)): no protection; also recorded: does not protect
cell viability response (MTT) under copper sulphate stress at high MTA concentrations (RN22 cells; MTA in mM range): lowest response
cell viability (MTT) under copper sulphate stress (RN22 cells; copper sulphate 150 μM, twenty-four hours, reaches NGF control levels at most MTA concentrations): significant neuroprotective effect
